Test results: the NIST ThermoML archive (doi:10.1016/j.jct.2013.12.021)
Numbers after ± are expanded uncertainties.

Test: Boiling temperature at pressure P
Conditions: 101.33 kPa; Liquid; Ebulliometric method (Recirculating still)

CO [methanol]
Boiling temperature at pressure P: 64.50 ± 0.1 °C
